According to patent US5942514A, “Quinazoline derivatives” (Zeneca Limited, priority 1995, dated 1999):

Experiments:
[1] = target: T1, EGF receptor tyrosine kinase (Homo sapiens, UniProt P00533); assay: In vitro assay: ability of a test compound to inhibit the enzyme EGF receptor tyrosine kinase (Test (a)); assay type: biochemical; settings: EGF receptor tyrosine kinase from A431 cells; approximate values
T1 construct: Receptor tyrosine kinase was obtained in partially purified form from A431 cells; endogenous in cells; host or cells: A431 cells (human vulval carcinoma), Triton X-100 solubilised membrane fraction
T1 sequence (P00533 25-1210): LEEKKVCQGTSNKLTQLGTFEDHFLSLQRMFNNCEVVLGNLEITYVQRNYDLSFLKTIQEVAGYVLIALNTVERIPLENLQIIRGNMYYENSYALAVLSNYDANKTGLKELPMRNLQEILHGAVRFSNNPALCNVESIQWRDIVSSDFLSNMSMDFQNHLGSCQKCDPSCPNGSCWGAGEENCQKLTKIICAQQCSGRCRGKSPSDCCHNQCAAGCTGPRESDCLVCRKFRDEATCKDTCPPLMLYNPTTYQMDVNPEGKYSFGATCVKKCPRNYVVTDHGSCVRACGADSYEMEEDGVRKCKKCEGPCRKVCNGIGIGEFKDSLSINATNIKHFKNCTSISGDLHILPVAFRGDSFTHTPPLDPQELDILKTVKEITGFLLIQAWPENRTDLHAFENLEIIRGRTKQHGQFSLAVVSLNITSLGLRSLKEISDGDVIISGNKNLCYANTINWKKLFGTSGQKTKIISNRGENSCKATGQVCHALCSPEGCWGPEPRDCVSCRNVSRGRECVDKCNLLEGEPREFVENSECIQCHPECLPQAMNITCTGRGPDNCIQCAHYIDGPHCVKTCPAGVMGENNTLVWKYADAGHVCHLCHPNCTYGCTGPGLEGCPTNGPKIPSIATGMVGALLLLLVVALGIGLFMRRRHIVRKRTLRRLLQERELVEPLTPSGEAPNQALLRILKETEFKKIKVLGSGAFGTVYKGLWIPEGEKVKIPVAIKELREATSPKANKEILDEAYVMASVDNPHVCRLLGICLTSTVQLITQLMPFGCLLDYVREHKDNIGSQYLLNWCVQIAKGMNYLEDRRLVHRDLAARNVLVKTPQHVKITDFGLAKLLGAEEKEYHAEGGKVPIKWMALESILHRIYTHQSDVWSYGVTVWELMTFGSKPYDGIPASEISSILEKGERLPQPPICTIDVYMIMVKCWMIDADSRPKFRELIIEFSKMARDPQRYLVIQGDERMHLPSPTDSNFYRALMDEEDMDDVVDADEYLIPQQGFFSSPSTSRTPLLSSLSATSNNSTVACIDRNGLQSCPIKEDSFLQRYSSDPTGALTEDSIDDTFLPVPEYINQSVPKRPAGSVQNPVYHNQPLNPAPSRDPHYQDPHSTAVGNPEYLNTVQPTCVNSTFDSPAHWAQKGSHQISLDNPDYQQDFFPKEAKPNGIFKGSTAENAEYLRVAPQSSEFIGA
Description: (a) An in vitro assay which determines the ability of a test compound to inhibit the enzyme EGF receptor tyrosine kinase.
A-431 cells were grown to confluence using Dulbecco's modified Eagle's medium (DMEM) containing 5% fetal calf serum (FCS). […] The homogenate was centrifuged at 400 g for 10 minutes at 0-4° C. The supernatant was centrifuged at 25,000 g for 30 minutes at 0-4° C. The pelleted material was suspended in 30 mM Hepes buffer at pH 7.4 containing 5% glycerol, 4 mM benzamidine and 1% Triton X-100, stirred for 1 hour at 0-4° C., and recentrifuged at 100,000 g for 1 hour at 0-4° C. The supernatant, containing solubilised receptor tyrosine kinase, was stored in liquid nitrogen.
There was thus obtained the test enzyme solution.
Equal volumes of this solution and a solution of epidermal growth factor (EGF; 20 μg/ml) were mixed.
[γ-^32 P]ATP (3000 Ci/mM, 250 μCi) was diluted to a volume of 2 ml by the addition of a solution of ATP (100 μM) in distilled water. An equal volume of a 4 mg/ml solution of the peptide […]in a mixture of 40 mM Hepes buffer at pH 7.4, 0.1% Triton X-100 and 10% glycerol was added.
The test compound/EGF mixture solution (5 μl) was added to the test enzyme solution (10 μl) and the mixture was incubated at 0-4° C. for 30 minutes. The ATP/peptide mixture (10 μl) was added and the mixture was incubated at 25° C. for 10 minutes. The phosphorylation reaction was terminated by the addition of 5% trichloroacetic acid (40 μl) and bovine serum albumin (BSA; 1 mg/ml, 5 μl). The mixture was allowed to stand at 4° C. for 30 minutes and then centrifuged. An aliquot (40 μl) of the supernatant was placed onto a strip of Whatman p 81 phosphocellulose paper. The strip was washed in 75 mM phosphoric acid (4×10 ml) and blotted dry. Radioactivity present in the filter paper was measured using a liquid scintillation counter (Sequence A). The reaction sequence was repeated in the absence of the EGF (Sequence B) and again in the absence of the test compound (Sequence C).
Receptor tyrosine kinase inhibition was calculated as follows: [formula]

KB cells = assay: In vitro assay: inhibition of the EGF-stimulated growth of the human naso-pharyngeal cancer cell line KB (Test (b)); assay type: cell-based; settings: 72 h, EGF 10 ng/ml, 3 days, MTT, approximate values
Description: (b) An in vitro assay which determines the ability of a test compound to inhibit the EGF-stimulated growth of the human naso-pharyngeal cancer cell line KB.
KB cells were seeded into wells at a density of 1×10^4 -1.5×10^4 cells per well and grown for 24 hours in DMEM supplemented with 5% FCS (charcoal-stripped). Cell growth was determined after incubation for 3 days by the extent of metabolism of MTT tetrazolium dye to furnish a bluish colour. Cell growth was then determined in the presence of EGF (10 ng/ml) or in the presence of EGF (10 ng/ml) and a test compound at a range of concentrations. An IC50 value could then be calculated.

| Structure (SMILES) | IC50 [1] | IC50 (KB cells) |
| --- | --- | --- |
| COCCNc1ccc2ncnc(Nc3ccc(F)c(F)c3)c2c1 [Example 2, 4-(3',4'-difluoroanilino)-6-(2-methoxyethylamino)quinazoline] | 0.3 µM | 0.5 µM |
| COCCCNc1ccc2ncnc(Nc3ccc(F)c(Cl)c3)c2c1 [Example 1, 4-(3'-chloro-4'-fluoroanilino)-6-(3-methoxypropylamino)quinazoline] | 0.05 µM | 0.1 µM |
| COCCNc1ccc2ncnc(Nc3ccc(F)c(Cl)c3)c2c1 [Example 3, 4-(3'-chloro-4'-fluoroanilino)-6-(2-methoxyethylamino)quinazoline] | 0.04 µM | 0.3 µM |
| COCCNc1ccc2ncnc(Nc3ccc(F)cc3F)c2c1 [Example 4, 4-(2',4'-difluoroanilino)-6-(2-methoxyethylamino)quinazoline] | 0.3 µM | 1.1 µM |
